Data taken from publication PMC4057667, “Study on Biopharmaceutics Classification and Oral Bioavailability of a Novel Multikinase Inhibitor NCE for Cancer Therapy” (International Journal of Molecular Sciences, 2014).

Experiments:
[1] = tested on: VEGF-stimulated human umbilical vein endothelial cells (HUVECs); parameters: method as in PMID 21691074; settings: in vitro; cited from earlier work
[2] = Biopharmaceutics Classification System (BCS) classification; settings: IDR below borderline value of 1 mg·min^−1·cm^−2
Excerpt: Targeted small-molecular inhibitors are promising antitumor candidates compared to the traditional chemotherapy drugs due to their high efficiency and low toxicity. Their common formulations are oral preparations with good compliance. The essential parameters controlling oral drug absorption are the permeability of the drug through the gastrointestinal (GI) membrane and the drug solubility/dissolution in GI milieu. Biopharmaceutics Classification System (BCS) is a modern tool to characterize drug permeability and solubility/dissolution [4, 5]. […] By using BCS system, some drug-drug interactions could be prevented and the in vivo bioavailability testing of the immediate release dosage forms of class I and III drugs could be bypassed. Up till now, there is rare systemic report about specific classification method according to BCS, especially for a novel drug candidate.
According to the Food and Drug Administration (FDA) guidance for biowaiver request of immediate-release solid oral dosage forms, a drug substance is considered as high soluble when the highest dose strength is soluble in ≤250 mL of aqueous media over the pH range of 1.0–7.5 [7]. However, the choice of different dose has a great impact on the dose/solubility ratio and then affects the classification of drugs. […]

pKa determination = format: physicochemical; settings: read-out: pKa of conjugate acid
[3] = parameters: method as in ref 31 = [31]; 31. Yang Y. Fan C. Zhang J. He X. Yu Y. Fang D. He Y. Song X. Intestinal absorption characteristics and pharmacokinetics of the novel targeted small-molecular NCE in rats Chin. J. New Drugs 2013 21 25; settings: rats; cited from earlier work
[4] = Stability in perfusion buffers; format: physicochemical; settings: for Detected concentration / Rate of change: perfusion buffer
Method: Storage conditions were investigated to guarantee the samples were stable before HPLC analysis. The stability of NCE was evaluated in the perfusion solution (pH 6.5). Four aliquots of the NCE solutions were stored at room temperature for 0, 2, 4 or 6 h, respectively. Another three were stored at 4 °C for 0, 24 or 48 h, respectively. All the samples were centrifuged at a rate of 1.3 × 10^4 rpm for 10 min and then measured by HPLC. The sample concentrations were compared.

**Q.** With CNC(=O)c1cc(Oc2ccc(NC(=O)c3cccc(C(F)(F)F)c3)cc2)ccn1.Cc1ccc(S(=O)(=O)O)cc1.O [NCE, 2-methylcarbamoyl-4-{4-[3-(trifluoromethyl)benzamido]phenoxy} pyridinium 4-methylbenzenesulfonate monohydrate] as the compound, how does the “inhibition of VEGF-stimulated HUVECs proliferation” value [1] read?
**A.** more selective inhibition

**Q.** And the solubility class [2]?
**A.** low solubility

**Q.** And the pKa (pKa determination)?
**A.** 2.86

**Q.** What about the absolute oral bioavailability [3] of the same compound?
**A.** 44.18%

**Q.** What about the Detected concentration ([4]; 4 °C, 24 h) of the same compound?
**A.** 19.16 µg/mL

**Q.** What about the Rate of change ([4]; 4 °C, 24 h) of the same compound?
**A.** 3.38%

**Q.** And the Detected concentration ([4]; 4 °C, 48 h)?
**A.** 18.99 µg/mL

**Q.** What about the Rate of change ([4]; 4 °C, 48 h) of the same compound?
**A.** 4.21%

**Q.** What about the Detected concentration ([4]; 20 °C, 0 h) of the same compound?
**A.** 19.83 µg/mL

**Q.** What about the Detected concentration ([4]; 20 °C, 2 h) of the same compound?
**A.** 19.66 µg/mL

**Q.** And the Rate of change ([4]; 20 °C, 2 h)?
**A.** 0.86%

**Q.** And the Detected concentration ([4]; 20 °C, 4 h)?
**A.** 19.49 µg/mL

**Q.** And the Rate of change ([4]; 20 °C, 4 h)?
**A.** 1.70%

**Q.** What about the Detected concentration ([4]; 20 °C, 6 h) of the same compound?
**A.** 19.32 µg/mL

**Q.** And the Rate of change ([4]; 20 °C, 6 h)?
**A.** 2.55%

**Q.** And the “concentration variation rates, all samples in stability study” value ([4]; perfusion buffers, up to 6 h at room temperature or 48 h at 4 °C)?
**A.** less than 5%
